According to paper PMC11256326, “Discovery of Heparin Mimetic, Potent, and Selective Inhibitors of Human Clotting Factor XIIIa” (ACS Omega, 2024):
Several values for one entry are separate records, joined by “and”; a condition that tells them apart may be missing. Equal values may be shown once. Read-outs that look alike come from different tables or passages of the source. Marks after values point to notes of the source that are not given here.

Experiments:
[1] = target: T1, FXIIIa (Homo sapiens, UniProt P00488); experiment: bisubstrate, fluorescence-based trans-glutamination assay; type: biochemical; conditions: for HS (Hill slope), FXIIIa inhibition: logistic fit eq 1; for IC50: pH 7.4, 37 °C, substrates dansylcadaverine and N,N-dimethylcasein
T1 construct: purchased Haematologic Technologies; host or cells: human plasma
T1 sequence (P00488 39-732 limits assumed): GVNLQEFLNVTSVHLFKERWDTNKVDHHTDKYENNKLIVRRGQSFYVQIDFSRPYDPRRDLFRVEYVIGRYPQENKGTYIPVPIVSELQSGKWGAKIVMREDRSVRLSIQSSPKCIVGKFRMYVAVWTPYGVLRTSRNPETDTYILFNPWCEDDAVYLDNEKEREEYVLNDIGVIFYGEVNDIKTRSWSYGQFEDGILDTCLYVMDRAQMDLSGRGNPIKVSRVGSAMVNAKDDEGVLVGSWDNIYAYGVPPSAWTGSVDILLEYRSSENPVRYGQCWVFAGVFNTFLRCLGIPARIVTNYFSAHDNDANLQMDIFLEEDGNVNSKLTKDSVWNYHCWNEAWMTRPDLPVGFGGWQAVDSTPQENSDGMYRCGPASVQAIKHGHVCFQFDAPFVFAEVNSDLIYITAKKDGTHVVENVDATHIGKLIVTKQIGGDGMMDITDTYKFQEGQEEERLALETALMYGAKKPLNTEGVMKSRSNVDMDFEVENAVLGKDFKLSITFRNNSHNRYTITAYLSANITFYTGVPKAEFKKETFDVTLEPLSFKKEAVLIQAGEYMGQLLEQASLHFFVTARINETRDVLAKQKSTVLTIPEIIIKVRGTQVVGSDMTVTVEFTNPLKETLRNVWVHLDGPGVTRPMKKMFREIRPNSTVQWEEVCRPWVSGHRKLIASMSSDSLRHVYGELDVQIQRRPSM
Description: A series of 27 sulfonated molecules (Figure 3) was screened for inhibition of human FXIIIa using a modified bisubstrate, fluorescence-based trans-glutamination assay, as described earlier.[36],[49] Dansylcadaverine and N,N-dimethylcasein were used as two substrates, which upon FXIIIa-dependence conjugation show a marked increase in fluorescence at 550 nm (λEX = 360 nm). The sulfonated molecules were structurally diverse given their number of anionic groups (mono- (inhibitors 24–27) to octa- (inhibitor 9)), number of building blocks (monomeric (molecules 26–29) to […] (inhibitor 14)), and the nature of the building block of oligomeric derivatives (benzamide derivatives (inhibitors 3–10, 24, and 25), triazine derivatives (inhibitors 11–14), and azo-naphthalene derivatives (molecules 15–22), and ureido-naphthalene derivative (23)) (Figure 3).
To measure the potency and efficacy of these inhibitors, the dose-dependence of FXIIIa inhibition was evaluated using logistic eq 1 (Table 1). The potency of inhibition refers to the IC50 (x-axis), whereas the efficacy refers to the net change in residual FXIIIa activity (ΔY%) (y-axis). Iodoacetamide, a nonselective inhibitor of thiol-containing enzymes, was used as a positive control.
To evaluate the effect of sulfonated molecules on human FXIIIa, a bisubstrate, fluorescence-based trans-glutamination assay was performed as we reported previously.[36],[49] Generally, 1 μL of the sulfonated molecule was diluted with 87 μL of pH 7.4 buffer (50 mM Tris-HCl, 1 mM CaCl2, 100 mM NaCl, and 2 mg/mL N,N-dimethylcasein) and 5 μL dithiothreitol (20 mM) at 37 °C followed by the addition of 2 μL of human FXIIIa (0.3 μM) and incubation for 10 min. The activity of FXIIIa was monitored following the addition of 5 μL of dansylcadaverine (2 mM) by measuring the initial rate of increase in fluorescence emission (λEx. = 360 nm and λEm. = 550 nm). Relative residual FXIIIa activity at each concentration of the inhibitor was calculated from the ratio of FXIIIa activity in the presence and absence of the inhibitor. Logistic eq 1 was used to fit the concentration dependence of residual FXIIIa activity to obtain the potency (IC50) and efficacy (ΔY%) of inhibition. [drawing 1] 1
This equation defines Y as the ratio of residual FXIIIa activity with the inhibitor present compared to its absence. YM represents the maximum possible value of residual FXIIIa activity, while YO denotes the minimum possible value. IC50 signifies the concentration of the inhibitor causing 50% enzyme activity inhibition, and HS represents the Hill slope. Determination of YM, YO, IC50, and HS values is achieved through nonlinear curve fitting of the experimental data.

[2] = test system: normal human plasma; experiment: prothrombin time (PT) of normal human plasma; type: biochemical; conditions: in vitro
Procedure: (§1) To further evaluate the selectivity as well as the potential toxicity of inhibitors, we studied their effects on the clotting times of normal human plasma as well as their effects on the proliferation of three cell lines. On the one hand, the inhibitors’ effects on activated partial thromboplastin time (APTT) and prothrombin time (PT) were measured, as described earlier under in vitro conditions,[52]−[55] using variable concentrations (0–2000 μM) (Table 3). […] On the other hand, the antiproliferative properties of inhibitors 13 and 16 were evaluated in three cell lines of breast (MCF-7), intestine (CaCo-2), and kidney (HEK-293) (Figure 5B), as described earlier.[56] […] Overall, inhibitor 16 can be considered for further development as a potent, selective, and nontoxic inhibitor of human FXIIIa.
(§2) Clotting times, including activated partial thromboplastin time (APTT) and prothrombin time (PT), were assessed in normal human plasma utilizing the BBL Fibrosystem fibrometer from Becton–Dickinson, as detailed in previous publications.[51]−[54] For the PT assay, thromboplastin-D was dissolved in 4 mL of highly purified water and then warmed to 37 °C. Subsequently, 10 μL of the inhibitor was added to 90 μL of normal human plasma and incubated for 30 s. Following this, 200 μL of prewarmed PT reagent was added, and the clotting time was recorded. In the APTT assay, 10 μL of the inhibitor was combined with 90 μL of normal human plasma and 100 μL of prewarmed APTT reagent (0.2% ellagic acid). After incubation for 4 min at 37 °C, clotting was initiated by adding 100 μL of prewarmed 0.025 M CaCl2, and the clotting time was documented. Multiple concentrations of each molecule were employed in both assays to establish a concentration vs effect curve.

[3] = test system: normal human plasma; experiment: activated partial thromboplastin time (APTT) of normal human plasma; type: biochemical; conditions: normal human plasma, in vitro
Procedure: as §1, §2

[4] = target: T1, FXIIIa; set-up: method as in PLoS One 11(7): e0160189; conditions: ref PLoS One 11(7): e0160189; cited from earlier work

Row | HS (Hill slope), FXIIIa inhibition [1] | IC50 [1] | Compound | further results
1 | 0.9 ± 0.2 | 162 ± 37.1 µM | O=C(Nc1cccc(C(=O)Nc2ccc(S(=O)(=O)O)c3cc(S(=O)(=O)O)cc(S(=O)(=O)O)c23)c1)Nc1cccc(C(=O)Nc2ccc(S(=O)(=O)O)c3cc(S(=O)(=O)O)cc(S(=O)(=O)O)c23)c1 [compound 7] | –
2 | 0.9 ± 0.2 | 14.7 ± 3 µM | Cc1[nH]n(-c2cc(Cl)c(S(=O)(=O)O)cc2Cl)c(=O)c1/N=N/c1cc(Nc2nc(Cl)nc(Nc3ccc(S(=O)(=O)O)cc3)n2)ccc1S(=O)(=O)O [compound 11] | PT2X (concentration required to double PT) [2]: >1667 µM; APTT2X (concentration required to double APTT) [3]: 1102.72 ± 93 ^b μM
3 | – | > 50 µM | Cc1ccc(C(=O)Nc2cc(S(=O)(=O)O)cc3ccc(S(=O)(=O)O)cc23)cc1NC(=O)Nc1cc(C(=O)Nc2cc(S(=O)(=O)O)cc3ccc(S(=O)(=O)O)cc23)ccc1C [compound 8] | FXIIIa inhibition at the highest concentration tested [1]: did not inhibit
4 | 1.5 ± 0.8 | – | O=C(Nc1ccc(C(=O)Nc2ccc(C(=O)Nc3ccc(S(=O)(=O)O)c4cc(S(=O)(=O)O)cc(S(=O)(=O)O)c34)cc2)cc1)Nc1ccc(C(=O)Nc2ccc(C(=O)Nc3ccc(S(=O)(=O)O)c4cc(S(=O)(=O)O)cc(S(=O)(=O)O)c34)cc2)cc1 [compound 5] | –
5 | – | – | O=c1c(OS(=O)(=O)O)c(-c2ccc(OS(=O)(=O)O)c(OS(=O)(=O)O)c2)oc2cc(OS(=O)(=O)O)cc(OCCCOc3cc(-c4oc5cc(OS(=O)(=O)O)cc(OCCCOc6cc(OS(=O)(=O)O)cc7oc(-c8ccc(OS(=O)(=O)O)c(OS(=O)(=O)O)c8)c(OS(=O)(=O)O)c(=O)c67)c5c(=O)c4OS(=O)(=O)O)ccc3OS(=O)(=O)O)c12 [compound 2] | fold less potent than inhibitor 16 against FXIIIa [1]: at least 15 fold; HS (Hill slope), FXIIIa inhibition [4]: 1.1±0.5; IC50 [4]: 118 ± 50 µM
6 | – | – | O=C(Nc1ccc2c(O)cc(S(=O)(=O)O)cc2c1)Nc1ccc2c(O)cc(S(=O)(=O)O)cc2c1 [compound 23] | FXIIIa inhibition at the highest concentration tested [1]: did not inhibit
7 | – | > 1000 µM | Cc1ccc(C(=O)Nc2ccc(CP(=O)(O)O)cc2CP(=O)(O)O)cc1NC(=O)c1cccc(NC(=O)Nc2cccc(C(=O)Nc3cc(C(=O)Nc4ccc(CP(=O)(O)O)cc4CP(=O)(O)O)ccc3C)c2)c1 [compound 6] | –
8 | 0.9 ± 0.2 | 286 ± 71.5 µM | O=C(Nc1cc(C(=O)Nc2ccc(S(=O)(=O)O)cc2S(=O)(=O)O)cc(C(=O)Nc2ccc(S(=O)(=O)O)cc2S(=O)(=O)O)c1)Nc1cc(C(=O)Nc2ccc(S(=O)(=O)O)cc2S(=O)(=O)O)cc(C(=O)Nc2ccc(S(=O)(=O)O)cc2S(=O)(=O)O)c1 [compound 9] | –
9 | – | – | O=c1c(OS(=O)(=O)O)c(-c2ccc(OS(=O)(=O)O)c(OS(=O)(=O)O)c2)oc2cc(OS(=O)(=O)O)cc(OCCOc3cc(-c4oc5cc(OS(=O)(=O)O)cc(OCCOc6cc(OS(=O)(=O)O)cc7oc(-c8ccc(OS(=O)(=O)O)c(OS(=O)(=O)O)c8)c(OS(=O)(=O)O)c(=O)c67)c5c(=O)c4OS(=O)(=O)O)ccc3OS(=O)(=O)O)c12 [compound 1, reference compound] | fold less potent than inhibitor 16 against FXIIIa [1]: at least 15 fold; HS (Hill slope), FXIIIa inhibition [4]: 0.9 ±0.2
10 | 1.5 ± 0.3 | 15.7 ± 2.1 µM | O=S(=O)(O)c1ccc(/N=N/c2ccc(/N=N/c3c(O)c(S(=O)(=O)O)cc4cc(S(=O)(=O)O)ccc34)c(S(=O)(=O)O)c2)cc1 [compound 17] | PT2X (concentration required to double PT) [2]: 868.96 ± 91 µM; APTT2X (concentration required to double APTT) [3]: 681.54 ± 65 µM
11 | 1.0 ± 0.1 | 23.6 ± 1.5 µM | CN(c1ccc2c(O)c(/N=N/c3ccccc3S(=O)(=O)O)c(S(=O)(=O)O)cc2c1)c1nc(Cl)nc(Nc2cccc(S(=O)(=O)O)c2)n1 [compound 12] | APTT2X (concentration required to double APTT) [3]: 2067.59 ± 200 µM
12 | 1.0 ± 0.2 | 77.2 ± 17.1 µM | Cc1ccc(C(=O)Nc2ccc(S(=O)(=O)O)c3cc(S(=O)(=O)O)cc(S(=O)(=O)O)c23)cc1NC(=O)c1cccc(NC(=O)Nc2cccc(C(=O)Nc3cc(C(=O)Nc4ccc(S(=O)(=O)O)c5cc(S(=O)(=O)O)cc(S(=O)(=O)O)c45)ccc3C)c2)c1 [compound 3] | –
13 | – | > 50 µM | O=C(Nc1cccc(C(=O)Nc2cc(C(=O)Nc3ccc(S(=O)(=O)O)c4cc(S(=O)(=O)O)cc(S(=O)(=O)O)c34)ccc2F)c1)Nc1cccc(C(=O)Nc2cc(C(=O)Nc3ccc(S(=O)(=O)O)c4cc(S(=O)(=O)O)cc(S(=O)(=O)O)c34)ccc2F)c1 [compound 4] | FXIIIa inhibition at the highest concentration tested [1]: did not inhibit
14 | 1.0 ± 0.3 | 16.5 ± 5.3 µM | CC(=O)Nc1ccc2cc(S(=O)(=O)O)c(/N=N/c3ccc(S(=O)(=O)CCOS(=O)(=O)O)cc3)c(O)c2c1 [compound 15] | APTT2X (concentration required to double APTT) [3]: >1667 µM
15 | – | > 50 µM | O=C(Nc1cc(C(=O)Nc2ccc(S(=O)(=O)O)cc2)cc(C(=O)Nc2ccc(S(=O)(=O)O)cc2)c1)Nc1cc(C(=O)Nc2ccc(S(=O)(=O)O)cc2)cc(C(=O)Nc2ccc(S(=O)(=O)O)cc2)c1 [compound 10] | FXIIIa inhibition at the highest concentration tested [1]: did not inhibit

Row | Compound | HS (Hill slope), FXIIIa inhibition [1] | IC50 [1] | further results
16 | NC(=O)CI [Iodoacetamide, reference compound] | 0.8 ± 0.2 | ~2.9 µM and 2.9 µM | –
